# Where “and” joins values, the source holds several entries; their conditions need not be identical. Equal entries are not always repeated.
# How the values were obtained:
# normal human melanocytes [1] = assay: Cytotoxicity (MTT reduction) and amount of proteins (Bradford), normal human melanocyte cultures; format: cell-based; settings: for Proteins / MTT: 10 days; for MTT: control = 100
# From the text: (§1) after culturing for 10 days under standard conditions, in 24-well plates, in Promocell medium free of “phorbol myristate acetate” (PMA):
# the cytotoxicity, by estimating the reduction of “methyl thiazolyl tetrazolium” (MTT), the amount of proteins, by assay according to the Bradford method and observation of the cell lawns, […]
# [2] = test system: B16F10-line mouse melanoma cells; assay: Melanin synthesis by B16F10-line melanocytes (7-day culture); format: cell-based; settings: 7 days
# Procedure: The melanogenesis-stimulating effect of silybin was measured on B16F10-line mouse melanoma cells.
# (§2) For silybin, the following were determined:
# (§3) after culturing for 7 days under standard conditions, in 24-well plates, DMEM medium containing 10% calf serum:
# the amount of melanin present in the cultures, by spectrophotometric measurement of the melanin produced, after alkaline extraction, relative to 100% of the control (the control corresponds to the test performed without test compound).
# [3] = test system: normal human hair follicles; assay: Protection against degeneration of cultured human hair follicles; format: cell-based; settings: precultured 7 days, then treated 7 days
# From the text: The aim of this test is to show the effect of the compounds used according to the invention on degeneration of the follicles in in vitro cultures of human hair follicles.
# Method: Normal human hair follicles are isolated by microdissection of human scalp (lifting) and cultured as in Example 4. The bulbs are all precultured (“aged”, without treatment) for 7 days (D7), and then left untreated or treated by the invention for a further 7 days (D14). The follicles are photographed and the morphology is analysed.
# [4] = target: T1, receptor MC1-R (melanocortin-1 receptor) (Mus musculus, UniProt Q01727); assay: Displacement of [125I]NDP-alpha-MSH from receptor MC1-R; format: binding
# Procedure: The binding of silybin to the receptor MC1-R (melanocortin-1 receptor) was studied.
# Silybin was tested in a test of displacement of an extremely powerful MC1-R ligand: displacement of [^125I]NDP-alpha-MSH, (according to Siegrist et al, 1988, J. Recept. Res., 8: 323-343).
# normal human melanocytes [5] = assay: Protein synthesis (3H-leucine incorporation), normal human melanocytes; format: cell-based; settings: for Protein synthesis (3H-leucine), % of control / Protein synthesis (3H-leucine), cpm: 3 days; for Protein synthesis (3H-leucine), cpm: labelling last 24 hours
# Procedure: (§4) after culturing for 3 days under standard conditions:
# the effects on the metabolism of normal human melanocytes by incorporation of tritiated leucine into neosynthesized proteins (labelling for the last 24 hours).
# [6] = test system: B16F10-line mouse melanoma cells; assay: Cytotoxicity (MTT) and amount of proteins (Bradford), B16F10 cultures; format: cell-based; settings: for Proteins / MTT: 7 days; for MTT: control = 100
# From the text: as §3
# the cytotoxicity, by estimating the […] of MTT, the amount of proteins, by assay according to the Bradford method and observation of the cell lawns, […]
# normal human melanocytes [7] = assay: Melanin synthesis by normal human melanocytes (10-day culture); format: cell-based; settings: 10 days
# Procedure: The melanogenesis-stimulating effect of silybin was measured on normal human melanocyte cultures.
# as §2, §1
# the amount of melanin present in the cultures, by spectrophotometric measurement of the melanin produced, after alkaline extraction, relative to 100% of the control (the control corresponds to the test performed without test compound);
# normal human melanocytes [8] = assay: Proliferation (3H-thymidine incorporation), normal human melanocytes; format: cell-based; settings: 3 days; for Proliferation (3H-thymidine), cpm: labelling last 24 hours
# Procedure: as §4
# the effects on the proliferation of normal human melanocytes by incorporation of tritiated thymidine into DNA (labelling for the last 24 hours),
# keratinocytes = assay: Proliferation/protein synthesis of keratinocytes; format: cell-based
# [9] = test system: normal human keratinocytes; assay: Phagocytosis of fluorescent beads by keratinocytes (flow cytometry); format: cell-based; settings: for % Positive cells (cells which have phagocytozed more than twice the basal phagocytosis), single replicates / Positive cells, % Control / % Positive cells, Mean: 24 hours; for % Positive cells, Mean: triplicate
# Procedure: The aim of this test is to show the effect of the compounds used according to the invention on modulation of the phagocytosis of particles by the keratinocytes.
# Method: Normal human keratinocytes are cultured in KSFM medium and treated for 24 hours with the compounds according to the invention, in the presence of calibrated fluorescent beads (Molecular Probes) of the size of melanosomes. The phagocytosis of the particles is visualized by fluorescence microscopy, and the cells are then harvested after trypsination and analysed by flow cytometry, to determine the number of cells that have phagocytozed a threshold number of particles and the intensity of the phagocytozed overall fluorescence (10 000 cells analysed per condition, in triplicate).
# [10] = target: T1, receptor MC1-R (melanocortin-1 receptor); settings: of the order of; read-out: Affinity of the ligand for MC1-R; cited from earlier work
# T1 sequence (Q01727 whole entry): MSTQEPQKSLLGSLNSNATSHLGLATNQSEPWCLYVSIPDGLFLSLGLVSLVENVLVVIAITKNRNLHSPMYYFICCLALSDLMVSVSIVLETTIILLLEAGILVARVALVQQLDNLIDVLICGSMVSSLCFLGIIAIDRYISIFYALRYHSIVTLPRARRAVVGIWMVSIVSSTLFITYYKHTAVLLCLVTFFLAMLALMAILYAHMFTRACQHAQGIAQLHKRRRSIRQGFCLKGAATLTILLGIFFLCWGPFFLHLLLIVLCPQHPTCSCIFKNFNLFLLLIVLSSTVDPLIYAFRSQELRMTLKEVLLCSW
compound,measurement,setting,value
"COc1cc(C2Oc3cc([C@H]4Oc5cc(O)cc(O)c5C(=O)[C@@H]4O)ccc3OC2CO)ccc1O (stereo partly drawn) [Silybin, 2-[(2R,3R)-2,3-dihydro-3-(4-hydroxy-3-methoxyphenyl)-2-(hydroxymethyl)-1,4-benzodioxin-6-yl]-2,3-dihydro-3,5,7-trihydroxy-4H-1-benzopyran-4-one, (2R,3R)-(9CI)]",Proteins,normal human melanocytes [1]; 0.00004% (w/v),0.765 mg/mL
same,MTT,normal human melanocytes [1]; 0.00004% (w/v),113%
same,Proteins,normal human melanocytes [1]; 0.0002% (w/v),0.792 mg/mL
same,MTT,normal human melanocytes [1]; 0.0002% (w/v),126%
same,Proteins,normal human melanocytes [1]; 0.001% (w/v),0.830 mg/mL
same,MTT,normal human melanocytes [1]; 0.001% (w/v),128%
same,Cytotoxic activity (in words),normal human melanocytes [1]; normal human melanocytes,without any cytotoxic activity
same,Melanin,[2]; 0.00004%,13.0 µg/mL
same,"Melanin, % relative to 100% of the control",[2]; 0.00004%,100%
same,Melanin,[2]; 0.0002%,15.0 µg/mL
same,"Melanin, % relative to 100% of the control",[2]; 0.0002%,115%
same,Melanin,[2]; 0.001%,33.0 µg/mL
same,"Melanin, % relative to 100% of the control",[2]; 0.001%,250% and 254%
same,Pigmentation of the hair root,[3],display pigmentation of all of the hair root
same,Displacement of [125I]NDP-alpha-MSH,[4]; at 100 μM (0.005%),10%
same,Displacement of [125I]NDP-alpha-MSH,[4]; at 500 μM,30%
same,"Protein synthesis (3H-leucine), % of control",normal human melanocytes [5]; 0.0002%,120%
same,"Protein synthesis (3H-leucine), cpm",normal human melanocytes [5]; 0.0002%,11705 cpm
same,"Protein synthesis (3H-leucine), % of control",normal human melanocytes [5]; 0.001%,124%
same,"Protein synthesis (3H-leucine), cpm",normal human melanocytes [5]; 0.001%,12099 cpm
same,Protein synthesis increase,normal human melanocytes [5]; protein neosynthesis over 72 hours,20%
same,Proteins,[6]; 0.00004%,1.553 mg/mL
same,MTT,[6]; 0.00004%,100%
same,Proteins,[6]; 0.0002%,1.594 mg/mL
same,MTT,[6]; 0.0002%,100%
same,Proteins,[6]; 0.001%,1.457 mg/mL
same,MTT,[6]; 0.001%,89%
same,Cell metabolism according to MTT and protein synthesis parameters (in words),[6]; B16F10,without modification of the cell metabolism
same,Melanin,normal human melanocytes [7]; 0.00004% (w/v),31.9 µg/mL
same,"Melanin, % relative to 100% of the control",normal human melanocytes [7]; 0.00004% (w/v),115%
same,Melanin,normal human melanocytes [7]; 0.0002% (w/v),37.1 µg/mL
same,"Melanin, % relative to 100% of the control",normal human melanocytes [7]; 0.0002% (w/v),134%
same,Melanin,normal human melanocytes [7]; 0.001% (w/v),41.5 µg/mL
same,"Melanin, % relative to 100% of the control",normal human melanocytes [7]; 0.001% (w/v),150%
same,"Proliferation (3H-thymidine), % of control",normal human melanocytes [8]; 0.0002%,83%
same,"Proliferation (3H-thymidine), cpm",normal human melanocytes [8]; 0.0002%,5638 cpm
same,"Proliferation (3H-thymidine), % of control",normal human melanocytes [8]; 0.001%,53%
same,"Proliferation (3H-thymidine), cpm",normal human melanocytes [8]; 0.001%,3622 cpm
same,Effect on proliferation/protein synthesis of keratinocytes,keratinocytes,did not otherwise show any effect
same,"% Positive cells (cells which have phagocytozed more than twice the basal phagocytosis), single replicates",[9]; 0.0002%,44.29% and 42.92% and 45.88%
same,"Positive cells, % Control",[9]; 0.0002%,124%
same,"% Positive cells, Mean",[9]; 0.0002%,44%
same,"% Positive cells (cells which have phagocytozed more than twice the basal phagocytosis), single replicates",[9]; 0.001%,52.19% and 50.74% and 49.94%
same,"Positive cells, % Control",[9]; 0.001%,143%
same,"% Positive cells, Mean",[9]; 0.001%,51%
same,Phagocytosis of fluorescent particles (in words),[9]; flow cytometry and fluorescence microscopy,significant and reproducible stimulation of phagocytosis
[^125I]NDP-alpha-MSH,Kd,[10],~100 pM

# — US8569358B2, “Use of silymarin and/or constituents thereof as skin or hair pigmentation promoters” (GreenPharma, priority 2005, dated 2013)
